Results published in patent publication US11661400B2, “NADPH oxidase inhibitors, pharmaceutical composition comprising the same, and application thereof” (TAIWANJ PHARMACEUTICALS CO., LTD., priority 2018, dated 2023).

Legend:
NOX1 = target: T1, NOX1 (Homo sapiens, UniProt Q9Y5S8); assay: NOX1 HT29 cell-based assay (luminol/HRP luminescence); conditions: HT29 cells, DMSO = 0%, GKT137831 = 100%; for inhibition at 0.1 µM / inhibition at 1 µM: HT-29
T1 construct: endogenous in cells; host or cells: HT29
T1 sequence (Q9Y5S8 1-564): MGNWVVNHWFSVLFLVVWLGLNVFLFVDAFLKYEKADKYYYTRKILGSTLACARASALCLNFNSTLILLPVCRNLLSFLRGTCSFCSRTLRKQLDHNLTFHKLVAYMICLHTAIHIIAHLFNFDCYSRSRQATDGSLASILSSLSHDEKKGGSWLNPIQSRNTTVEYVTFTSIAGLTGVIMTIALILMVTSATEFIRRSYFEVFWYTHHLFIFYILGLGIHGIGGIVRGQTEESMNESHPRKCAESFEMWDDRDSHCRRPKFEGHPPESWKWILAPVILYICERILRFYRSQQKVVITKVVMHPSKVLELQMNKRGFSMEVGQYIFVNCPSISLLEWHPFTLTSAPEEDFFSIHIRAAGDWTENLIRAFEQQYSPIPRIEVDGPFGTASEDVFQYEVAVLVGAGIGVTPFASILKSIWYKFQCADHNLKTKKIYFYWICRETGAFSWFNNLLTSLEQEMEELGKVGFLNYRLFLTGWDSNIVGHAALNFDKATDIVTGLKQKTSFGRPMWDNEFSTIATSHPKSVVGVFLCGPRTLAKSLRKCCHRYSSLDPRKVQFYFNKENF
T1 sequence (P13498 2-195 partner limits assumed): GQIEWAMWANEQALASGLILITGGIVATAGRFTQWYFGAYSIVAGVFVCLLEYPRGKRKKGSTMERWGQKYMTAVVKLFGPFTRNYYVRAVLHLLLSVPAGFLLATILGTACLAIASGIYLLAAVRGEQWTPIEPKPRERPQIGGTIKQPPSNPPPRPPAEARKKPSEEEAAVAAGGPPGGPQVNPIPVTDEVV
Description: NOX1 HT29 Cell-Based Assay:
HT29 cells were cultured in T75 flask (Corning) and when 70-80% confluence was reached, cells were trypsinized, harvested in HBSS and counted. 1-2×10^5 cells were dispensed into individual wells in 70 μl final volume (96-well plates, white Corning). Cells were treated for 30-60 mins at 37° C. with 10 μl of GKT137831, DMSO and test compounds from their respective assay plates. This will correspond to a final concentration of 100 nM, 1000 nM GKT137831 or test compounds, and 0.1% DMSO. 20 μL of a mixture containing 100 μM luminol plus 0.4 units of HRP (final concentration) was added. Luminescence was quantified using a SpectraMax i3 Multiplate reader (Molecular Devices, Sunnyvale, Calif., USA). As designed, compounds that inhibit NOX1 activity will reduce cellular ROS production, leading to reduced probe-ROS interactions and reduced well luminescence. Compounds were tested in duplicate at a concentration of 100 nM and 1000 nM. DMSO and GKT137831 wells were applied as negative and positive controls, and the activities measured were set to 0% and 100%, respectively.

NOX4 = target: T2, NOX4 (Homo sapiens, UniProt Q9NPH5); assay: NOX4 HEK293 overexpression cell-based assay (Amplex Red H2O2); conditions: HEK293 cells stably overexpressing NOX4, DMSO = 0, GKT137831 = 100; for inhibition at 0.1 µM: HEK293, 100 nM; for inhibition at 1 µM: HEK293, 1000 nM
T2 construct: expressed in transfected cells
T2 sequence (Q9NPH5 1-578): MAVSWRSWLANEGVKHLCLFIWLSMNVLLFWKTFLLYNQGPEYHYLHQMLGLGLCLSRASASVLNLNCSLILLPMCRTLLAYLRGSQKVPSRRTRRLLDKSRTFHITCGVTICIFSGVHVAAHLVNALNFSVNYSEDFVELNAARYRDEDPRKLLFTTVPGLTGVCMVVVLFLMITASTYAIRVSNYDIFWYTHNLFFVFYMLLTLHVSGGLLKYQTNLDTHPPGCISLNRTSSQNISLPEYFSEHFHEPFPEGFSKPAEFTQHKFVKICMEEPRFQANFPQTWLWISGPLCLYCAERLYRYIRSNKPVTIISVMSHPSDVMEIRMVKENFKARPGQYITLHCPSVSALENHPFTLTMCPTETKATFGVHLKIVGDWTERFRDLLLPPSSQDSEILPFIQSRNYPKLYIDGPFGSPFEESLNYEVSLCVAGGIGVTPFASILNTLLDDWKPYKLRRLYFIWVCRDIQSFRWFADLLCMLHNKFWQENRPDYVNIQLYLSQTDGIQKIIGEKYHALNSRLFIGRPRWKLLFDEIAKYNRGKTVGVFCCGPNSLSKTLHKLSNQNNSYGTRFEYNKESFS
T2 sequence (P13498 2-195 partner limits assumed): T1 sequence (P13498 2-195 partner limits assumed)
Description: Extracellular H2O2 measurement using Amplex™ Red Hydrogen Peroxide/Peroxidase Assay Kit (Catalog number: A22188; Invitrogen, Carlsbad, Calif., USA) was used to detect extracellular H2O2 release by HEK293 cells stably overexpressing NOX4. NOX4 clonal cells in log-phase growth were trypsinized, washed, and dispersed thoroughly. Following trypsinization, the cells (3×10^4) were resuspended in 100 μL of 1× Krebs-Ringer phosphate glucose (KRPG) buffer containing various concentrations of GKT137831 or test compounds and incubated at 37° C. for 30 min. Cells were mixed with 100 μL of Amplex Red reagent solution containing 50 μM Amplex Red and 0.1 units/mL of HRP in KRPG buffer; each assay condition was evaluated induplicate. The samples were incubated at 37° C. for 90 mins in the dark, and then centrifuged at 2,500 g for 5 mins. The supernatants were loaded to a 96 well plate, and then measured using a SpectraMax i3 Multiplate reader (Molecular Devices, Sunnyvale, Calif., USA) at 530 nm excitation and 590 nm emission respectively. DMSO and GKT137831 wells were applied as negative and positive controls, and the activities measured were set to 0 and 100, respectively.

NOX2 = target: T3, NOX2 (Homo sapiens, UniProt P04839); assay: NOX2 HL60 cell-based assay (PMA oxidative burst, L012 chemiluminescence); conditions: DMSO-differentiated HL-60 cells, PMA-stimulated; for inhibition at 0.1 µM: HL-60, 100 nM; for inhibition at 1 µM: HL-60, 1000 nM
T3 construct: HL-60 cells, rich in NOX2 expression; endogenous in cells; host or cells: DMSO-differentiated HL-60
T3 sequence (P04839 2-570 limits assumed): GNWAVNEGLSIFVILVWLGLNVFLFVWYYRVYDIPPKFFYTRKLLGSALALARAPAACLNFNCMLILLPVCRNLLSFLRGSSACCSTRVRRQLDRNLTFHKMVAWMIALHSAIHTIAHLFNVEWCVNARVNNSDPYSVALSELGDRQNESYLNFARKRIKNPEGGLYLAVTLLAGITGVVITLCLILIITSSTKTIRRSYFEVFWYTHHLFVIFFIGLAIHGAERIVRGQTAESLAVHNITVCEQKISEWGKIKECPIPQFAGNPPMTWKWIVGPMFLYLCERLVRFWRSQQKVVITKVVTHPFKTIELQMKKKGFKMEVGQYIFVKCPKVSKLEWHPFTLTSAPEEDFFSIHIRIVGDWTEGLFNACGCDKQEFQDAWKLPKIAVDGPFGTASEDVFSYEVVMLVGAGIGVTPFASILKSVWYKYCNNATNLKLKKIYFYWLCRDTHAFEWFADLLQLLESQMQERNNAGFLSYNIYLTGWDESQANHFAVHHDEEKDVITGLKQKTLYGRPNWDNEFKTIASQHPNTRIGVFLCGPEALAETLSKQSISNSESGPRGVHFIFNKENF
T3 sequence (P13498 2-195 partner limits assumed): T1 sequence (P13498 2-195 partner limits assumed)
Description: NOX2 HL60 Cell-Based Assay:
HL-60 cells, rich in NOX2 expression, was stimulated to undergo oxidative burst by phorbol myristate acetate (PMA). The ROS produced during this process was measured using the O2^−-specific chemiluminescent probe L012. L012 was added to DMSO-differentiated HL-60 cell suspensions to a final concentration of 100 μM. Then, 80 μL aliquots of cell suspension (2.5×10^5 cells) were transferred to individual wells of a 96-well plate. Test compounds were directly added to the wells at the specified concentrations. Following a 30-60 mins incubation at 37° C. in the dark, the oxidative burst was initiated by the addition of 10 ng/mL PMA, and the chemiluminescence signal was recorded every 5 min over a period of 60 mins in a SpectraMax i3 Multiplate reader (Molecular Devices, Sunnyvale, Calif., USA). • NOX4 HEK293 Overexpression Cell-Based Assay: […]

SMILES | inhibition at 0.1 µM (NOX1; 100 nM) | inhibition at 1 µM (NOX1; 1000 nM) | % Inhibition NOX4 (NOX4; 1000 nM) | inhibition at 0.1 µM (NOX4) | % Inhibition NOX2 (NOX2; 100 nM) | % Inhibition NOX2 (NOX2; 1000 nM) | % Inhibition NOX1 (NOX1; 100 nM) | % Inhibition NOX1 (NOX1; 1000 nM) | % Inhibition NOX4 (NOX4; 100 nM) | % Inhibition NOX2 (NOX2; 100 nM, acetate, 0.1 µM) | % Inhibition NOX2 (NOX2; 1000 nM, acetate, 1 µM) | inhibition at 1 µM (NOX4) | inhibition at 0.1 µM (NOX2) | inhibition at 1 µM (NOX2)
COc1ccc(C(=O)COC(=O)c2ccc3c(=O)c(O)c(-c4ccc(OC)cc4)[nH]c3c2)cc1 [Compound 32, 2-(4-methoxyphenyl)-2-oxoethyl 3-hydroxy-2-(4-methoxyphenyl)-4-oxo-1,4-dihydroquinoline-7-carboxylate 2,2,2-trifluoroacetate] | ≤ 19% | 50 to 79% | C (the percent of inhibition of NOX by the compounds ranges from 2000 to 49%) | ≤ 19% | C (the percent of inhibition of NOX by the compounds ranges from 2000 to 49%) | C (the percent of inhibition of NOX by the compounds ranges from 2000 to 49%) |  |  |  |  |  |  |  | 
COc1cc2[nH]c(-c3ccccc3C(F)(F)F)c(O)c(=O)c2cc1OC [Compound 43, 3-hydroxy-6,7-dimethoxy-2-(2-(trifluoromethyl)phenyl)quinolin-4(1H)-one acetate] |  |  | B (the percent of inhibition of NOX by the compounds ranges from 50% o to 79% o) |  |  |  | A (the percent of inhibition of NOX by the compounds is larger than or equals to 80%) | A (the percent of inhibition of NOX by the compounds is larger than or equals to 80%) | B (the percent of inhibition of NOX by the compounds ranges from 50% o to 79% o) | B (the percent of inhibition of NOX by the compounds ranges from 50% o to 79% o) | A (the percent of inhibition of NOX by the compounds is larger than or equals to 80%) |  |  | 
COc1ccc(-c2c(O)c(=O)c3ccccc3n2C)cc1 [Compound 39] | ≤ 19% | ≥ 80% |  | ≤ 19% |  |  |  |  |  |  |  | 50 to 79% | ≤ 19% | ≤ 19%
COc1ccc(-c2[nH]c3cc(OC)c(OC)cc3c(=O)c2O)cc1 [Compound 2, 3-hydroxy-6,7-dimethoxy-2-(4-methoxyphenyl) quinolin-4(1H)-one 2,2,2-trifluoroacetate] | ≥ 80% | ≥ 80% |  |  |  |  |  |  | C (the percent of inhibition of NOX by the compounds ranges from 2000 to 49%) |  |  | ≥ 80% | ≤ 19% | 50 to 79%
COc1ccc(-c2[nH]c3ccsc3c(=O)c2O)cc1 [Compound 10] | ≥ 80% | ≥ 80% |  |  |  | C (the percent of inhibition of NOX by the compounds ranges from 2000 to 49%) |  |  | C (the percent of inhibition of NOX by the compounds ranges from 2000 to 49%) |  |  | ≥ 80% | ≤ 19% | 
COc1cc2[nH]c(-c3ccccc3)c(N)c(=O)c2cc1OC [Compound 37] | ≤ 19% | ≥ 80% |  | ≤ 19% |  |  |  |  |  |  |  | 50 to 79% | 50 to 79% | ≥ 80%
COc1cc2[nH]c(-c3ccccc3[N+](=O)[O-])c(O)c(=O)c2cc1OC [Compound 29, 3-hydroxy-6,7-dimethoxy-2-(2-nitrophenyl) quinolin-4(1H)-one 2,2,2-trifluoroacetate] | ≥ 80% | ≥ 80% |  | 50 to 79% | C (the percent of inhibition of NOX by the compounds ranges from 2000 to 49%) |  |  |  |  |  |  | 50 to 79% |  | ≥ 80%
Br.O=c1c(O)c(-c2ccc(O)cc2)[nH]c2cc(O)c(O)cc12 [Compound 3, 3,6,7-trihydroxy-2-(4-hydroxyphenyl) quinolin-4(1H)-one hydrobromide] |  | ≥ 80% |  | ≤ 19% | C (the percent of inhibition of NOX by the compounds ranges from 2000 to 49%) |  | C (the percent of inhibition of NOX by the compounds ranges from 2000 to 49%) |  |  |  |  | 50 to 79% |  | ≥ 80%
